Source: patent US20250207103A1, “CYTOCOMPATIBLE HYDROGELS AND METHODS OF MAKING AND USING THE SAME” (The Trustees of Indiana University, priority 2022, published 2025)

Key:
CAFs = experiment: effect of blebbistatin and Y-27632 on spreading of CAFs in viscoelastic hydrogels; format: cell-based, human; conditions: Y-27632: 10 μM; for F-actin polymerization in CAFs: blebbistatin: 40 μM, Day 15
Description: (§1) To facilitate imaging, pancreatic cancer cells COLO-357 were stably transduced with mKate2, a red fluorescent protein (RFP), using INCUCYTE® Cytolight Lentivirus reagent, followed by puromycin selection. green fluorescent protein (GFP)-labelled human pancreatic cancer associated fibroblasts (1303-GFP-49-hT, or CAF) and RFP-labelled COLO-357 (PCC) were maintained in high glucose Dulbecco's modified eagle medium (DMEM, Gibco) containing 10% Fetal bovine serum (FBS, Corning) and 1% antibiotic-antimycotic (Gibco) at 37° C. with 5% CO2. Cells were trypsinized by 0.1% trypsin-ethylenediaminetetraacetic acid (trypsin-EDTA) (Gibco) for cell encapsulation. The cell density of CAF and PCC was kept at 1.6 million/mL (M/mL) and 400 thousand/mL (k/mL), respectively, in both single-encapsulated and co-encapsulated precursor solutions. The hydrogel precursor solution was similar to the aforementioned formulations, except that 3 wt % of GelSH was included to facilitate cell proliferation. Twenty-five μL precursor solution was cured under UV light (λ=365 nm, 5 mW/cm^2) in an opened 1 mL syringe for 2 minutes. The cell-laden hydrogels were then cultured in regular cell culture media. For hydrogels treated with myosin inhibitor blebbistatin (40 μM, Peprotech) and ROCK inhibitor Y-27632 (10 μM, AdipoGen), the treated culture media was replaced daily to ensure the efficacy of inhibitors.
The cell viability of CAF in hydrogels was evaluated by staining with ethidium homodimer 3. The morphology of CAF in hydrogels was analyzed using F-actin (rhodamine phalloidin 100 nM, Cytoskeleton) and 4′,6-diamidino-2-phenylindole (DAPI) (1:1000, Anaspec) stained images. In the co-encapsulated hydrogels, cells were stained using F-actin (Actin stain 670 phalloidin 200 nM, Cytoskeleton) and DAPI (1:1000). The confocal images (Olympus Fluoview FV100 laser scanning microscope) were z-stacked from 5 μm slices over 100 μm in total.

PCCs/CAFs = experiment: effect of blebbistatin and Y-27632 on PCCs/CAFs encapsulated in viscoelastic hydrogels; format: cell-based, human; conditions: blebbistatin: 40 μM, Y-27632: 10 μM, Day 15
Description: as §1, with “The cell-laden hydrogels were then cultured in regular cell culture media. For hydrogels treated with myosin inhibitor blebbistatin (40 μM, Peprotech) and ROCK inhibitor Y-27632 (10 μM, AdipoGen), the treated culture media was replaced daily to ensure the efficacy of inhibitors.” left out
The cell viability of CAF in hydrogels was evaluated by staining with ethidium homodimer 3. The morphology of CAF in hydrogels was analyzed using F-actin (rhodamine phalloidin 100 nM, Cytoskeleton) and 4′,6-diamidino-2-phenylindole (DAPI) (1:1000, Anaspec) stained images. […]

Row | Structure (SMILES) | F-actin polymerization in CAFs (CAFs) | invasive phenotype of PCC cells in co-culture (PCCs/CAFs) | cell morphology of CAFs (CAFs)
1 | Cc1ccc2c(c1)C(=O)C1(O)CCN(c3ccccc3)C1=N2 (centres unmarked) [blebbistatin] | disrupted F-actin polymerization | neither the addition of blebbistatin nor Y-27632 altered invasive phenotype | 
2 | C[C@@H](N)[C@H]1CC[C@H](C(=O)Nc2ccncc2)CC1 [Y-27632] | disrupted F-actin polymerization | neither the addition of blebbistatin nor Y-27632 altered invasive phenotype | more obvious dendritic extensions of cells
